Key:
[1] = tested on: ABUTH; experiment: Pre-emergence herbicidal action against ABUTH; format: in vivo, Abutilon theophrasti; settings: for Pre-emergence action against ABUTH (herbicidal activity): 80 g/ha, scored visually after 3 weeks vs untreated controls (100% = plants have died, 0% = like control plants); for Pre-emergence action against ABUTH (herbicidal activity in percent): dosage 20 g/ha, scored visually after 3 weeks vs untreated controls, 100% = plants have died, 0% = like control plants
Outline: (§1)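 Seeds sown in sandy loam, soil-covered; compound sprayed on soil surface pre-emergence. Application: WP/EC, 600–800 l/ha, 0.2% wetting agent. Readout: visual % damage at 3 weeks.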

[2] = tested on: ALOMY; experiment: Pre-emergence herbicidal action against ALOMY; format: in vivo, Alopecurus myosuroides; settings: for Pre-emergence action against ALOMY (herbicidal activity): 80 g/ha, scored visually after 3 weeks vs untreated controls (100% = plants have died, 0% = like control plants)
Outline: as §1

[3] = tested on: AMARE; experiment: Pre-emergence herbicidal action against AMARE; format: in vivo, Amaranthus retroflexus
Outline: as §1

[4] = tested on: AVEFA; experiment: Pre-emergence herbicidal action against AVEFA; format: in vivo, Avena fatua; settings: 80 g/ha, pre-emergence
Outline: as §1

[5] = tested on: ECHCG; experiment: Pre-emergence herbicidal action against ECHCG; format: in vivo, Echinochloa crus-galli; settings: 80 g/ha
Outline: as §1

[6] = tested on: MATIN; experiment: Pre-emergence herbicidal action against MATIN; format: in vivo, Matricaria inodora
Outline: as §1

[7] = tested on: SETVI; experiment: Pre-emergence herbicidal action against SETVI; format: in vivo, Setaria viridis; settings: dosage 80 g/ha
Outline: as §1

[8] = tested on: VERPE; experiment: Pre-emergence herbicidal action against VERPE; format: in vivo, Veronica persica
Outline: as §1

[9] = tested on: VIOTR; experiment: Pre-emergence herbicidal action against VIOTR; format: in vivo, Viola tricolor
Outline: as §1

[10] = tested on: ABUTH; experiment: Post-emergence herbicidal action against ABUTH; format: in vivo, Abutilon theophrasti; settings: visual assessment about 3 weeks after treatment vs untreated controls
Outline: (§2)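 Sandy loam, greenhouse; treatment 2–3 weeks after sowing, one-leaf stage. Aqueous suspension or emulsion from WP/EC sprayed on foliage (600–800 l/ha, 0.2% wetting agent). Readout: visual % action, ~3 weeks.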

[11] = tested on: ALOMY; experiment: Post-emergence herbicidal action against ALOMY; format: in vivo, Alopecurus myosuroides; settings: dosage 20 g/ha, visual assessment about 3 weeks after treatment vs untreated controls
Outline: as §2

[12] = tested on: AMARE; experiment: Post-emergence herbicidal action against AMARE; format: in vivo, Amaranthus retroflexus; settings: 20 g/ha, visual assessment about 3 weeks after treatment, 100% = plants have died, 0% = like control plants
Outline: as §2

[13] = tested on: AVEFA; experiment: Post-emergence herbicidal action against AVEFA; format: in vivo, Avena fatua; settings: 20 g/ha, visual assessment about 3 weeks after treatment, 100% = plants have died, 0% = like control plants
Description: Seeds of monocotyledonous and dicotyledonous weed and crop plants are laid out in sandy loam soil in wood-fiber pots, covered with soil and cultivated in a greenhouse under good growth conditions. 2 to 3 weeks after sowing, the test plants are treated at the one-leaf stage. The compounds of the invention, formulated in the form of wettable powders (WP) or as emulsion concentrates (EC), are then sprayed onto the green parts of the plants in the form of an aqueous suspension or emulsion at a water application rate equivalent to 600 to 800 l/ha, with addition of 0.2% wetting agent. After the test plants have been left to stand in the greenhouse under optimal growth conditions for about 3 weeks, the action of the preparations is assessed visually in comparison to untreated controls (herbicidal action in percent (%): 100% activity=the plants have died, 0% activity=like control plants). […] The tables below illustrate, in an illustrative manner, the post-emergence herbicidal action of the compounds of the invention, the herbicidal activity being stated in percent.

[14] = tested on: ECHCG; experiment: Post-emergence herbicidal action against ECHCG; format: in vivo, Echinochloa crus-galli
Outline: as §2

[15] = tested on: MATIN; experiment: Post-emergence herbicidal action against MATIN; format: in vivo, Matricaria inodora
Outline: as §2

[16] = tested on: PHBPU; experiment: Post-emergence herbicidal action against PHBPU; format: in vivo, Pharbitis purpurea; settings: dosage 20 g/ha
Outline: as §2

[17] = tested on: SETVI; experiment: Post-emergence herbicidal action against SETVI; format: in vivo, Setaria viridis
Outline: as §2

[18] = tested on: VERPE; experiment: Post-emergence herbicidal action against VERPE; format: in vivo, Veronica persica
Outline: as §2

[19] = tested on: VIOTR; experiment: Post-emergence herbicidal action against VIOTR; format: in vivo, Viola tricolor
Outline: as §2

[20] = tested on: PHBPU; experiment: Pre-emergence herbicidal action against PHBPU; format: in vivo, Pharbitis purpurea; settings: dosage 80 g/ha
Outline: as §1

[21] = tested on: DIGSA; experiment: Pre-emergence herbicidal action against DIGSA; format: in vivo, Digitaria sanguinalis
Outline: as §1

[22] = 20 g/ha, scored visually after 3 weeks vs untreated controls, 100% = plants have died, 0% = like control plants
[23] = 80 g/ha, scored visually after 3 weeks vs untreated controls (100% = plants have died, 0% = like control plants)

Row | SMILES | Pre-emergence action against ABUTH (herbicidal activity) [1] [%] | Pre-emergence action against ABUTH (herbicidal activity in percent) [1] [%] | Pre-emergence action against ALOMY (herbicidal activity) [2] [%] | Pre-emergence action against AMARE in % [3, 22] [%] | Pre-emergence action against AMARE in % [3, 23] [%] | Pre-emergence action against AVEFA in % [4] [%] | Pre-emergence action against ECHCG in % [5] [%] | Pre-emergence action against MATIN in % ([6]; dosage 20 g/ha) [%] | Pre-emergence action against MATIN in % ([6]; dosage 80 g/ha) [%] | Pre-emergence action against SETVI in % [7] [%] | Pre-emergence action against VERPE in % ([8]; dosage 80 g/ha) [%] | Pre-emergence action against VIOTR in % ([9]; dosage 20 g/ha) [%] | Pre-emergence action against VIOTR in % ([9]; dosage 80 g/ha) [%] | Post-emergence action against ABUTH in % ([10]; dosage 20 g/ha) [%] | Post-emergence action at 20 g/ha against AMARE in % [12] [%] | Post-emergence action at 20 g/ha against AVEFA in % [13] [%] | Post-emergence action against ECHCG in % ([14]; dosage 20 g/ha) [%] | Post-emergence action against MATIN in % ([15]; dosage 20 g/ha) [%] | Post-emergence action against PHBPU in % [16] [%] | Post-emergence action against SETVI in % ([17]; dosage 20 g/ha) [%] | other results
1 | CSc1c(C(=O)Nc2nnnn2C)ccc(C(F)(F)F)c1C(=O)NC(C)C1CC1 (stereo not drawn) [Example 1-352] | 100 | 100 | 80 | 100 | 100 | 80 | 100 | 100 | 100 | 100 | 100 | 100 | 100 | 100 | 100 | 80 | 100 | 90 | 90 | 100 | Pre-emergence action against VERPE in % ([8]; dosage 20 g/ha): 90%; Post-emergence action against ALOMY in % [11]: 80%; Post-emergence action against ECHCG in % ([14]; dosage 5 g/ha): 100%; Post-emergence action against MATIN in % ([15]; dosage 5 g/ha): 80%; Post-emergence action against SETVI in % ([17]; dosage 5 g/ha): 80%; Post-emergence action against VERPE in % ([18]; 20 g/ha): 90%; Post-emergence action against VIOTR in % ([19]; 5 g/ha): 100%; Post-emergence action against VIOTR in % ([19]; 20 g/ha): 100%
2 | CCn1nnnc1NC(=O)c1ccc(C(F)(F)F)c(C(=O)NCC(F)(F)F)c1C [Example 2-29] | 100 | 100 | 80 | 100 | 100 | 100 | 100 | 100 | 100 | 100 |  | 100 | 100 | 80 |  | 80 | 80 | 80 | 80 | 80 | Pre-emergence action against PHBPU in % [20]: 80%; Pre-emergence action against DIGSA in % ([21]; dosage 20 g/ha): 90%; Pre-emergence action against DIGSA in % ([21]; dosage 80 g/ha): 100%
3 | CCn1nnnc1NC(=O)c1ccc(C(F)F)c(C(=O)NC2CC2)c1SC [Example 2-89] | 100 | 100 | 100 | 90 | 100 | 90 | 90 | 90 | 100 | 100 | 90 | 90 | 100 | 90 | 100 | 80 | 90 | 90 | 80 | 100 | Post-emergence action against ABUTH in % ([10]; dosage 5 g/ha): 90%; Post-emergence action against ALOMY in % [11]: 90%; Post-emergence action against MATIN in % ([15]; dosage 5 g/ha): 90%; Post-emergence action against SETVI in % ([17]; dosage 5 g/ha): 90%; Post-emergence action against VERPE in % ([18]; 5 g/ha): 80%; Post-emergence action against VERPE in % ([18]; 20 g/ha): 90%; Post-emergence action against VIOTR in % ([19]; 5 g/ha): 90%; Post-emergence action against VIOTR in % ([19]; 20 g/ha): 90%
4 | CCc1c(C(=O)Nc2nnnn2CC)ccc(C(F)(F)F)c1C(=O)NC(C)C1CC1 (stereo not drawn) [Example 2-341] | 100 | 100 | 90 | 100 | 100 | 90 | 100 | 100 | 100 | 90 | 90 | 90 | 100 | 80 | 100 | 90 | 90 | 80 | 80 |  | Pre-emergence action against ALOMY ([2]; 20 g/ha, scored visually after 3 weeks, 100% = plants have died, 0% = like control plants): 80%; Pre-emergence action against PHBPU in % [20]: 80%; Post-emergence action against ECHCG in % ([14]; dosage 5 g/ha): 80%
